{"source": "patent US20230031406A1", "about": "“COMPOUNDS AND COMPOSITIONS FOR TREATING CONDITIONS ASSOCIATED WITH NLRP ACTIVITY” (Novartis AG, priority 2018, published 2023)", "test_system": "PMA-differentiated THP-1 cells", "assay": "IL-1β production in PMA-differentiated THP-1 cells stimulated with gramicidin (hTHP-1 assay containing 2% fetal bovine serum; Procedures 1 and 2)", "format": "cell-based, human", "summary_of_the_method": "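PMA 20 ng/ml 16-18 h → trypsinise → 50,000 cells/well, RPMI/2% FBS; cpd 1 h (11-pt, 100–0.0017 μM; DMSO 0.37%); gramicidin 5 μM, 2 h; spin; supernatant IL-1β via HTRF.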", "key": {"[1]": {"details": "Table B1, 2% fetal bovine serum, class symbols, read-out: Average IC50 of compounds in hTHP-1 assay: hTHP-1 IC50"}, "[2]": {"details": "Homo sapiens, THP-1, Table B3, hTHP-1 assay, 2% fetal bovine serum, class symbols, read-out: IC50"}, "[3]": {"details": "Homo sapiens, THP-1, Table B1, 2% fetal bovine serum, class symbols, read-out: Average IC50 of compounds in hTHP-1 assay: hTHP-1 IC50"}, "[4]": {"details": "Homo sapiens, THP-1, Table B2, 2% fetal bovine serum, class symbols, read-out: hTHP-1 IC50"}, "[5]": {"details": "Table B2, 2% fetal bovine serum, class symbols, read-out: hTHP-1 IC50"}, "[6]": {"details": "Homo sapiens, THP-1, Table B1, 2% fetal bovine serum, numeric bounds, read-out: Average IC50 of compounds in hTHP-1 assay: hTHP-1 IC50"}}, "note": "Like-named read-outs stand apart in the source and are kept apart here.", "data": [{"smiles": "CC1CCc2c1nc1c(c2NC(=O)N=S(N)(=O)c2sc(C(C)(C)O)nc2CO)CCC1", "note": "(single isomer, unassigned) [Compound 168ba, (R,S) or (R,R)-4-(hydroxymethyl)-2-(2-hydroxypropan-2-yl)-N′-((3-methyl-1,2,3,5,6,7-hexahydrodicyclo-penta[b,e]pyridin-8-yl)carbamoyl)thiazole-5-sulfonimidamide]", "values": [{"measurement": "IC50", "setting": "[1]", "value": "0.2 to 1", "unit": "µM"}]}, {"smiles": "CC1(C)CCc2c1nc1c(c2NC(=O)N=S(N)(=O)c2cc([C@](C)(O)CO)cs2)CCC1", "note": "(stereo partly drawn) [Example 623, 4-((S)-1,2-dihydroxypropan-2-yl)-N′-((3,3-dimethyl-1,2,3,5,6,7-hexahydrodicyclopenta[b,e]pyridin-8-yl)carbamoyl)thiophene-2-sulfonimidamide]", "values": [{"measurement": "IC50", "setting": "[2]", "value": "0.2 to 1", "unit": "µM"}]}, {"smiles": "CC(C)c1c(-c2ccccc2)nc2c(c1NC(=O)N=S(N)(=O)c1cnc(C(C)(C)O)s1)CCC2", "note": "(centres unmarked) [Compound 145, 2-(2-hydroxypropan-2-yl)-N′-((3-isopropyl-2-phenyl-6,7-dihydro-5H-cyclopenta[b]pyridin-4-yl)carbamoyl)thiazole-5-sulfonimidamide]", "values": [{"measurement": "IC50", "setting": "[3]", "value": "5 to 30", "unit": "µM"}]}, {"smiles": "CCn1ccc([S@](N)(=O)=NC(=O)Nc2c3c(nc(C4CC4)c2C2CC2)CCC3)n1", "note": "[Compound 726b]", "values": [{"measurement": "IC50", "setting": "[4]", "value": "0.2 to 1", "unit": "µM"}]}, {"smiles": "Cc1c(C2CC2)nc2c(c1NC(=O)N=S(N)(=O)c1ccn(C(F)F)n1)CCC2", "note": "(single isomer, unassigned) [Compound 676a, (S) or (R)-N′-((2-cyclopropyl-3-methyl-6,7-dihydro-5H-cyclopenta[b]pyridin-4-yl)carbamoyl)-1-(difluoromethyl)-1H-pyrazole-3-sulfonimidamide]", "values": [{"measurement": "IC50", "setting": "Homo sapiens, THP-1, Table B2, 2% fetal bovine serum, numeric bounds, read-out: hTHP-1 IC50", "value": "> 30", "unit": "µM"}]}, {"smiles": "Cc1nc2c(c(NC(=O)N=S(N)(=O)c3ncc(C(C)(C)O)s3)c1C1CC1)CCC2", "note": "(centres unmarked) [Compound 618, N′-((3-cyclopropyl-2-methyl-6,7-dihydro-5H-cyclopenta[b]pyridin-4-yl)carbamoyl)-5-(2-hydroxypropan-2-yl)thiazole-2-sulfonimidamide]", "values": [{"measurement": "IC50", "setting": "[4]", "value": "1 to 5", "unit": "µM"}]}, {"smiles": "CC(C)n1cc(F)c(S(N)(=O)=NC(=O)Nc2c3c(nc4c2CCC4)CCC3)n1", "note": "(single isomer, unassigned) [Example 785, (R) or (S)-4-fluoro-N′-((1,2,3,5,6,7-hexahydrodicyclopenta [b,e]pyridin-8-yl)carbamoyl)-1-isopropyl-1H-pyrazole-3-sulfonimidamide]", "values": [{"measurement": "IC50", "setting": "Table B4, 2% fetal bovine serum, class symbols, read-out: hTHP-1 IC50", "value": "0.04 to 0.2", "unit": "µM"}]}, {"smiles": "Cc1c(C(F)(F)F)nc2c(c1NC(=O)N=S(N)(=O)c1cnc(C(C)(O)CO)s1)CCC2", "note": "(single isomer, unassigned) [Compound 605g, (S, S) or (R, S)-2-(1,2-Dihydroxypropan-2-yl)-N′-((3-methyl-2-(trifluoromethyl)-6,7-dihydro-5H-cyclopenta[b]pyridin-4-yl)carbamoyl) thiazole-5-sulfonimidamide]", "values": [{"measurement": "IC50", "setting": "[5]", "value": "5 to 30", "unit": "µM"}]}, {"smiles": "Cc1c(C2CC2)nc2c(c1NC(=O)N=S(N)(=O)c1cc(C(C)(C)O)cs1)CCC2C", "note": "(centres unmarked) [Compound 656, N′-((2-cyclopropyl-3,7-dimethyl-6,7-dihydro-5H-cyclopenta[b]pyridin-4-yl)carbamoyl)-4-(2-hydroxypropan-2-yl)thiophene-2-sulfonimidamide]", "values": [{"measurement": "IC50", "setting": "[5]", "value": "1 to 5", "unit": "µM"}]}, {"smiles": "Cc1c(C2CC2)nc2c(c1NC(=O)N=S(N)(=O)c1cc(C(C)(C)O)cs1)CCC2", "note": "(single isomer, unassigned) [Compound 175a, (R) or (S)-N′-((2-cyclopropyl-3-methyl-6,7-dihydro-5H-cyclopenta[b]pyridin-4-yl)carbamoyl)-4-(2-hydroxypropan-2-yl)thiophene-2-sulfonimidamide]", "values": [{"measurement": "IC50", "setting": "[1]", "value": "5 to 30", "unit": "µM"}]}, {"smiles": "Cc1c(C(C)C)nc2c(c1NC(=O)N=S(N)(=O)c1sc(C(C)(C)O)cc1F)CCC2", "note": "(single isomer, unassigned) [Compound 645b, (S) or (R)-3-Fluoro-5-(2-hydroxypropan-2-yl)-N′-((2-isopropyl-3-methyl-6,7-dihydro-5H-cyclopenta[b]pyridin-4-yl)carbamoyl) thiophene-2-sulfonimidamide]", "values": [{"measurement": "IC50", "setting": "[5]", "value": "5 to 30", "unit": "µM"}]}, {"smiles": "CCn1cc(F)c(S(N)(=O)=NC(=O)Nc2c3c(nc(C4CC4)c2C2CC2)CCC3)n1", "note": "(single isomer, unassigned) [Example 708, (S) or (R)-N′-((2,3-dicyclopropyl-6,7-dihydro-5H-cyclopenta[b]pyridin-4-yl)carbamoyl)-1-ethyl-4-fluoro-1H-pyrazole-3-sulfonimidamide]", "values": [{"measurement": "IC50", "setting": "Table B3, hTHP-1 assay, 2% fetal bovine serum, class symbols, read-out: IC50", "value": "5 to 30", "unit": "µM"}]}, {"smiles": "CC(C)(O)c1sc(S(N)(=O)=NC(=O)Nc2c3c(nc4c2CCC4(C)C)CCC3)cc1F", "note": "(centres unmarked) [Compound 613, N′-((3,3-dimethyl-1,2,3,5,6,7-hexahydrodicyclopenta[b,e]pyridin-8-yl)carbamoyl)-4-fluoro-5-(2-hydroxypropan-2-yl)thiophene-2-sulfonimidamide]", "values": [{"measurement": "IC50", "setting": "[4]", "value": "0.2 to 1", "unit": "µM"}]}, {"smiles": "Cc1c(-c2ccccc2)nc2c(c1NC(=O)N=S(N)(=O)c1cnc(C(C)(C)O)s1)CCC2", "note": "(single isomer, unassigned) [Compound 143a, (S) or (R)-2-(2-hydroxy-propan-2-yl)-N′-((3-methyl-2-phenyl-6,7-dihydro-5H-cyclopenta[b]pyridin-4-yl)carbamoyl)thiazole-5-sulfonimidamide]", "values": [{"measurement": "IC50", "setting": "[6]", "value": "> 30", "unit": "µM"}]}, {"smiles": "Cc1c(C(F)(F)F)nc2c(c1NC(=O)N=S(N)(=O)c1ccn(C(C)C)n1)CCC2", "note": "(centres unmarked) [Compound 628, 1-Isopropyl-N′-((3-methyl-2-(trifluoromethyl)-6,7-dihydro-5H-cyclopenta[b]pyridin-4-yl)carbamoyl)-1H-pyrazole-3-sulfonimidamide]", "values": [{"measurement": "IC50", "setting": "[4]", "value": "0.2 to 1", "unit": "µM"}]}, {"smiles": "CC(C)(O)c1nc(CO)c(S(N)(=O)=NC(=O)Nc2c3c(nc4c2CCC4(C)C)CCC3)s1", "note": "(centres unmarked) [Compound 121, N′-((3,3-dimethyl-1,2,3,5,6,7-hexahydrodicyclopenta[b,e]pyridin-8-yl)carbamoyl)-4-(hydroxymethyl)-2-(2-hydroxypropan-2-yl)thiazole-5-sulfonimidamide]", "values": [{"measurement": "IC50", "setting": "[3]", "value": "0.2 to 1", "unit": "µM"}]}, {"smiles": "CC(C)c1c(-c2ccccc2)nc2c(c1NC(=O)N=S(N)(=O)c1cnc(C(C)(C)O)s1)CCC2", "note": "(single isomer, unassigned) [Compound 145a, (R) or (S)-2-(2-hydroxy-propan-2-yl)-N′-((3-isopropyl-2-phenyl-6,7-dihydro-5H-cyclopenta[b]pyridin-4-yl)carbamoyl)thiazole-5-sulfonimidamide]", "values": [{"measurement": "IC50", "setting": "[1]", "value": "0.2 to 1", "unit": "µM"}]}, {"smiles": "CC(C)n1cc(F)c(S(N)(=O)=NC(=O)Nc2c3c(nc(C(F)(F)F)c2C2CC2)CCC3)n1", "note": "(centres unmarked) [Compound 1104, N′-((3-cyclopropyl-2-(trifluoromethyl)-6,7-dihydro-5H-cyclopenta[b]pyridin-4-yl)carbamoyl)-4-fluoro-1-isopropyl-1H-pyrazole-3-sulfonimidamide]", "values": [{"measurement": "IC50", "setting": "Homo sapiens, THP-1, read-out: hTHP-1 IC50 in 2% FBS, hTHP-1 assay containing 2% fetal bovine serum, Table B5", "value": "0.2 to 1", "unit": "µM"}]}, {"smiles": "CCc1nc2c(c(NC(=O)N=S(N)(=O)c3sc(C(C)(C)O)cc3F)c1C1CC1)CCC2", "note": "(single isomer, unassigned) [Compound 631b, (R) or (S)-N′-((3-cyclopropyl-2-ethyl-6,7-dihydro-5H-cyclopenta[b]pyridin-4-yl)carbamoyl)-3-fluoro-5-(2-hydroxypropan-2-yl)thiophene-2-sulfonimidamide]", "values": [{"measurement": "IC50", "setting": "[5]", "value": "0.04 to 0.2", "unit": "µM"}]}, {"smiles": "CNS(=O)(=O)c1cccc(S(N)(=O)=NC(=O)Nc2c3c(nc4c2CCC4(C)C)CCC3)c1", "note": "(centres unmarked) [Compound 735, 3-(N′-((3,3-dimethyl-1,2,3,5,6,7-hexahydrodicyclopenta [b,e]pyridin-8-yl)carbamoyl)sulfamidimidoyl)-N-methylbenzenesulfonamide]", "values": [{"measurement": "IC50", "setting": "[4]", "value": "1 to 5", "unit": "µM"}]}, {"smiles": "CCn1nc(S(N)(=O)=NC(=O)Nc2c3c(nc4c2CCC4(C)C)CCC3)cc1CO", "note": "(single isomer, unassigned) [Example 725, (S) or (R)-N′-((3,3-dimethyl-1,2,3,5,6,7-hexahydrodicyclopenta[b,e]pyridin-8-yl)carbamoyl)-1-ethyl-5-(hydroxymethyl)-1H-pyrazole-3-sulfonimidamide]", "values": [{"measurement": "IC50", "setting": "Homo sapiens, THP-1, Table B3, hTHP-1 assay, 2% fetal bovine serum, numeric values, read-out: IC50", "value": "> 30", "unit": "µM"}]}, {"smiles": "CC(C)(O)c1ncc(S(N)(=O)=NC(=O)Nc2c3c(nc4c2CCC4F)CCC3)s1", "note": "(centres unmarked) [Compound 183, N′-((3-fluoro-1,2,3,5,6,7-hexahydrodicyclopenta[b,e]pyridin-8-yl)carbamoyl)-2-(2-hydroxypropan-2-yl)thiazole-5-sulfonimidamide]", "values": [{"measurement": "IC50", "setting": "[1]", "value": "5 to 30", "unit": "µM"}]}, {"smiles": "CC(C)(O)c1cncc(S(N)(=O)=NC(=O)Nc2c3c(nc4c2CCC4(C)C)CCC3)c1", "note": "(single isomer, unassigned) [Compound 684b, (S) or (R)-N′-((3,3-dimethyl-1,2,3,5,6,7-hexahydrodicyclopenta [b,e]pyridin-8-yl)carbamoyl)-5-(2-hydroxypropan-2-yl)pyridine-3-sulfonimidamide]", "values": [{"measurement": "IC50", "setting": "[5]", "value": "5 to 30", "unit": "µM"}]}, {"smiles": "Cc1c(C(F)(F)F)nc2c(c1NC(=O)N=S(N)(=O)c1ccn(C(C)C)n1)CCC2", "note": "(single isomer, unassigned) [Compound 628b, (R) or (S)-1-Isopropyl-N′-((3-methyl-2-(trifluoromethyl)-6,7-dihydro-5H-cyclopenta[b]pyridin-4-yl)carbamoyl)-1H-pyrazole-3-sulfonimidamide]", "values": [{"measurement": "IC50", "setting": "[4]", "value": "0.2 to 1", "unit": "µM"}]}, {"smiles": "CC(C)c1ncc(F)c(C(C)C)c1NC(=O)N=S(N)(=O)c1ccc(CN(C)C)cc1", "note": "(single isomer, unassigned) [Compound 132b, (S) or (R)-4-((dimethyl-amino)methyl)-N′-((5-fluoro-2,4-diisopropylpyridin-3-yl)carbamoyl)benzene-sulfonimidamide]", "values": [{"measurement": "IC50", "setting": "[6]", "value": "> 30", "unit": "µM"}]}, {"smiles": "CC(C)(O)c1cc(F)c(S(N)(=O)=NC(=O)Nc2c3c(nc(C(F)(F)F)c2C2CC2)CCC3)s1", "note": "(centres unmarked) [Example 610]", "values": [{"measurement": "IC50", "setting": "[2]", "value": "0.2 to 1", "unit": "µM"}]}]}
